We go through 12 compounds from patent US20240417411A1, “COMPOUNDS AND METHODS FOR TREATMENT OF VIRAL INFECTIONS” (priority 2023, published 2024).

The term EC50 denotes the concentration giving half of the maximal effect. In general, half-life refers to how long it takes for the measured level to halve. Low values mean fast loss, high ones slow loss. As usually defined, the CC50 is the concentration at which the toxic effect on the cells reaches its halfway point. Higher therefore signals better tolerance by the cells.

Structures can show the parent of a compound that is named as a salt. Where two headings read alike, the source gives them in different places.

One series relates to RSV-Luc5. Put plainly: microbe, parasite or virus in culture. In kind it is cell-based. The conditions noted are these: human respiratory syncytial virus, NHBE, 72 h, read-out: RSV NHBE EC50 (nM).
A short description of series [1]: in vitro. To be noted: human, plasma.
Series [2] concerns Caco-2 cells (clone C2BBe1). To be noted: human.
The next series deals with SARS-CoV2-NLuc. Kind of series: microbe, parasite or virus in culture. Format: cell-based, SARS Coronavirus 2. To be noted: Severe acute respiratory syndrome coronavirus 2, 48 h, read-out: SARS-CoV2 EC50 (nM).
Series [3] can be described thus: in vitro. The conditions noted are these: human. Format: cell-based. Here is the method:
Example C: CC50 MT4 Cytotoxicity of the compounds was determined in uninfected cells using the cell viability reagent in a similar fashion as described before for other cell types ([…] et al., Antimicrob Agents Chemother. 2008,52(2):655-65). […] Cells were cultured for 4-5 days at 37° C. Following the incubation, the cells were allowed to equilibrate to 25° C., and cell viability was determined by adding Cell-Titer Glo viability reagent. The mixture was incubated for 10 min, and the luminescence signal was quantified using an Envision plate reader. Untreated cell and cells treated at 2 μM puromycin (Sigma, St. Louis, MO) serve as 100% and 0% cell viability control, respectively. The percent of cell viability was calculated for each tested compound concentration relative to the 0% and 100% controls and the CC50 value was determined by non-linear regression as a compound concentration reducing the cell viability by 50%.

Series [4] is described as follows: in vitro. Format: in vitro ADME. The conditions noted are these: human, s9, pH 7.4. Here is the method:
Example D: GI S9 Stability […] The S9 metabolic reactions were initiated by the addition of the substrates to the S9 reaction mixture to a final concentration of 2 μM. […] Aliquots ([…]) of the diluted supernatant were analyzed on a Thermo Q-Exactive mass spectrometer as described below. Example F: Liquid Chromatography/Mass Spectroscopy Methods for S9 and Plasma Stability Quantification of test compounds, Reference Compound A (S9 stability assay nucleoside metabolite), and controls was performed by analyte/internal standard peak area ratio (PAR) values measured on a Thermo Q-Exactive mass spectrometer coupled to a Dionex UltiMate 3000 HPLC with a Leap Technologies HTC PAL autosampler. […] Mobile phase A consisted of 0.1% (v/v) formic acid in water. Mobile phase B consisted of 0.1% (v/v) formic acid in acetonitrile. Elution of analytes was achieved by a series of linear gradients of acetonitrile in water containing 0.10% (v/v) formic acid. The mass spectrometer was calibrated on a weekly basis and mass tolerance of 5 ppm was used.

Consider `CC(C)OC(=O)OC[C@H]1O[C@@](C#N)(c2ccc3c(N)ncnn23)[C@@H]2OC(=O)OCCCCCCOC(=O)O[C@@H]21` [Compound C53, ((12aR,13R,15R,15aR)-15-(4-aminopyrrolo[2,1-f][1,2,4]triazin-7-yl)-15-cyano-2,11-dioxodecahydrofuro[3,4-d][1,3,6,8]tetraoxacyclotetradecin-13-yl)methyl isopropyl carbonate], for which the EC50 worked out at 1330 nM with RSV-Luc5 and 9660 nM in the series on SARS-CoV2-NLuc. Besides, the half-life at 2 μM in “in vitro [1]” was 317 min; in “in vitro [4]”, 0.691 min. Further, the “Caco2 A to B” value in series [2] (Caco-2) worked out at 9.28. In addition, the “Caco2 B to A” value in series [2] (Caco-2) is recorded as 15.92. Also, the cytotoxic concentration (CC50) in “in vitro [3]” was over 50 µM.
With `CN1[C@@H]2CC[C@H]1C[C@@H](OC(=O)OC[C@H]1O[C@@](C#N)(c3ccc4c(N)ncnn34)[C@@H]3OC(=O)CCCC(=O)O[C@@H]31)C2` [Compound C30, ((7aR,8R,10R,10aR)-10-(4-aminopyrrolo[2,1-f][1,2,4]triazin-7-yl)-10-cyano-2,6-dioxooctahydro-2H-furo[3,4-b][1,4]dioxonin-8-yl)methyl ((1R,3s,5S)-8-methyl-8-azabicyclo[3.2.1]octan-3-yl) carbonate formate], the figures for the EC50 in the series on RSV-Luc5 and in the series with SARS-CoV2-NLuc were over 50000 nM and 42500 nM, respectively. Besides, the results for the half-life at 2 μM in the series “in vitro [1]” and in “in vitro [4]” were 24 min and 0.575 min, respectively. Besides, the “Caco2 A to B” value in series [2] (Caco-2, 2 h) is recorded as 0.02. Also, the “Caco2 B to A” value in series [2] (Caco-2, 2 h) came to 0.42. Besides, in “in vitro [3]”, the 50% cytotoxic concentration (CC50) was over 50 µM.
As for `CC(C)OC(=O)OC[C@H]1O[C@@](C#N)(c2ccc3c(N)ncnn23)[C@@H]2OC(=O)CC(C)(C)CC(=O)O[C@@H]21` [Compound C3, ((7aR,8R,10R,10aR)-10-(4-aminopyrrolo[2,1-f][1,2,4]triazin-7-yl)-10-cyano-4,4-dimethyl-2,6-dioxooctahydro-2H-furo[3,4-b][1,4]dioxonin-8-yl)methyl isopropyl carbonate], the results for the concentration giving a half-maximal response (EC50) with RSV-Luc5 and in the series with SARS-CoV2-NLuc were over 50000 nM and 12000 nM, respectively. Also, the half-life at 2 μM in “in vitro [1]” stood at 1240 min; in “in vitro [4]”, 6 min. Further, the “Caco2 A to B” value in series [2] (Caco-2) amounted to 5.9. The “Caco2 B to A” value in series [2] (Caco-2) was determined as 7.3. The compound further came in with a 50% cytotoxic concentration (CC50) in “in vitro [3]” of over 50 µM.
Take `CC(C)OC(=O)OC[C@H]1O[C@@](C#N)(c2ccc3c(N)ncnn23)[C@@H]2OC(=O)CCCC(=O)O[C@@H]21` [Compound C2, ((7aR,8R,10R,10aR)-10-(4-aminopyrrolo[2,1-f][1,2,4]triazin-7-yl)-10-cyano-2,6-dioxooctahydro-2H-furo[3,4-b][1,4]dioxonin-8-yl)methyl isopropyl carbonate]: the EC50 in the series with RSV-Luc5 came to 3350 nM; in the series with SARS-CoV2-NLuc, 9600 nM. For the same compound, the half-life at 2 μM is 7.8 min in “in vitro [1]” and 0.616 min in “in vitro [4]”. For the same compound, in series [2] (Caco-2), the “Caco2 A to B” value amounted to 1.66. Further, in series [2] (Caco-2), the “Caco2 B to A” value is 7.32. In the series “in vitro [3]”, this compound displayed a CC50 of over 50 µM.
`CC(C)OC(=O)OC[C@H]1O[C@@](C#N)(c2ccc3c(N)ncnn23)[C@@H]2OC(=O)OCCC=CCCOC(=O)O[C@@H]21` [Compound C52, ((12aR,13R,15R,15aR)-15-(4-aminopyrrolo[2,1-f][1,2,4]triazin-7-yl)-15-cyano-2,11-dioxo-4,5,8,9,12a,13,15,15a-octahydrofuro[3,4-d][1,3,6,8]tetraoxacyclotetradecin-13-yl)methyl isopropyl carbonate]: the concentration giving a half-maximal response (EC50) in the series on RSV-Luc5 stood at 1600 nM. In addition, the half-life in the series “in vitro [1]” amounted to 1580 min. Moreover, in series [2] (Caco-2), the “Caco2 A to B” value worked out at 6.77 and the “Caco2 B to A” value is 11.87. In addition, the EC50 in the series with SARS-CoV2-NLuc was 7100 nM. In the series “in vitro [3]”, this compound had a CC50 of over 50 µM. Also, in the series “in vitro [4]”, the half-life at 2 μM came to 0.6 min.
On to `CN1[C@@H]2CC[C@H]1C[C@@H](OC(=O)OC[C@H]1O[C@@](C#N)(c3ccc4c(N)ncnn34)[C@@H]3OC(=O)CC(C)(C)CC(=O)O[C@@H]31)C2` [Compound C47, ((7aR,8R,10R,10aR)-10-(4-aminopyrrolo[2,1-f][1,2,4]triazin-7-yl)-10-cyano-4,4-dimethyl-2,6-dioxooctahydro-2H-furo[3,4-b][1,4]dioxonin-8-yl)methyl ((1R,3s,5S)-8-methyl-8-azabicyclo[3.2.1]octan-3-yl) carbonate formate], for which the EC50 in the series on RSV-Luc5 and in the series on SARS-CoV2-NLuc was over 50000 nM in each case. Further, the half-life at 2 μM in “in vitro [1]” stood at 60.2 min; in the series “in vitro [4]” it was 99.4 min. In addition, in series [2] (Caco-2, 2 h), the “Caco2 A to B” value turned out to be 0.04. For the same compound, the “Caco2 B to A” value in series [2] (Caco-2, 2 h) came out at 5.19. Also, the CC50 in the series “in vitro [3]” is over 50 µM.
As for `N#C[C@@]1(c2ccc3c(N)ncnn23)O[C@H](COC(=O)OC2CCOCC2)[C@H]2OC(=O)CCCC(=O)O[C@H]21` [Compound C16, ((7aR,8R,10R,10aR)-10-(4-aminopyrrolo[2,1-f][1,2,4]triazin-7-yl)-10-cyano-2,6-dioxooctahydro-2H-furo[3,4-b][1,4]dioxonin-8-yl)methyl (tetrahydro-2H-pyran-4-yl) carbonate], the values for the half-maximal effective concentration (EC50) in the series with RSV-Luc5 and with SARS-CoV2-NLuc were 20000 nM and 14900 nM, respectively. The compound also gave a half-life in “in vitro [1]” of 14.1 min. Further, the “Caco2 A to B” value in series [2] (Caco-2) worked out at 0.68. For the same compound, the “Caco2 B to A” value in series [2] (Caco-2) was determined as 5.08. For the same compound, the CC50 in “in vitro [3]” is over 50 µM. Also, the half-life at 2 μM in “in vitro [4]” came out at 0.605 min.
In the case of `CC(C)(OC(=O)OC[C@H]1O[C@@](C#N)(c2ccc3c(N)ncnn23)[C@@H]2OC(=O)CCCC(=O)O[C@@H]21)c1ccncc1` [Compound C17, ((7aR,8R,10R,10aR)-10-(4-aminopyrrolo[2,1-f][1,2,4]triazin-7-yl)-10-cyano-2,6-dioxooctahydro-2H-furo[3,4-b][1,4]dioxonin-8-yl)methyl (2-(pyridin-4-yl)propan-2-yl) carbonate], the EC50 with RSV-Luc5 is over 50000 nM; in the series on SARS-CoV2-NLuc, 29900 nM. The half-life at 2 μM in “in vitro [1]” was 31.1 min. For the same compound, the “Caco2 A to B” value in series [2] (Caco-2) was found to be 2.97. Further, the “Caco2 B to A” value in series [2] (Caco-2) is on record as 15.86. Further, the CC50 in the series “in vitro [3]” is over 50 µM.
With `CC1(C)CC(=O)O[C@H]2[C@@H](OC(=O)C1)[C@](C#N)(c1ccc3c(N)ncnn13)O[C@@H]2COC(=O)OC1CCOCC1` [Compound C33, ((7aR,8R,10R,10aR)-10-(4-aminopyrrolo[2,1-f][1,2,4]triazin-7-yl)-10-cyano-4,4-dimethyl-2,6-dioxooctahydro-2H-furo[3,4-b][1,4]dioxonin-8-yl)methyl (tetrahydro-2H-pyran-4-yl) carbonate], the EC50 in the series on RSV-Luc5 is over 50000 nM. In “in vitro [1]”, this compound returned a half-life of 609 min. In series [2] (Caco-2), the “Caco2 A to B” value came out at 0.41 and the “Caco2 B to A” value came to 3.17. Moreover, in the series with SARS-CoV2-NLuc, the EC50 is over 50000 nM. The 50% cytotoxic concentration (CC50) in the series “in vitro [3]” was over 50 µM. Besides, the half-life at 2 μM in “in vitro [4]” stood at 29 min.
For the compound `CC(C)OC(=O)OC[C@H]1O[C@@](C#N)(c2ccc3c(N)ncnn23)[C@@H]2OC(=O)CN(C)CC(=O)O[C@@H]21` [Compound C4, ((7aR,8R,10R,10aR)-10-(4-aminopyrrolo[2,1-f][1,2,4]triazin-7-yl)-10-cyano-4-methyl-2,6-dioxooctahydro-2H-furo[3,4-b][1,4,7]dioxazonin-8-yl)methyl isopropyl carbonate], the EC50 worked out at 3120 nM in the series on RSV-Luc5 and 6730 nM in the series with SARS-CoV2-NLuc. For the same compound, the half-life at 2 μM is 65.6 min in “in vitro [1]” and 0.694 min in the series “in vitro [4]”. Moreover, the “Caco2 A to B” value in series [2] (Caco-2) is recorded as 0.023. For the same compound, the “Caco2 B to A” value in series [2] (Caco-2) was 2. In “in vitro [3]”, this compound gave a CC50 of over 50 µM.
On to `CCOC(=O)[C@@H]1[C@H](OC(=O)OC[C@H]2O[C@@](C#N)(c3ccc4c(N)ncnn34)[C@@H]3OC(=O)CC(C)(C)CC(=O)O[C@@H]32)CCN1C` [Compound C49, ethyl (2S,3R)-3-(((((7aR,8R,10R,10aR)-10-(4-aminopyrrolo[2,1-f][1,2,4]triazin-7-yl)-10-cyano-4,4-dimethyl-2,6-dioxooctahydro-2H-furo[3,4-b][1,4]dioxonin-8-yl)methoxy)carbonyl)oxy)-1-methylpyrrolidine-2-carboxylate], for which the EC50 with RSV-Luc5 and with SARS-CoV2-NLuc was over 50000 nM each time. Further, the results for the half-life at 2 μM in “in vitro [1]” and in “in vitro [4]” were 42.5 min and 7.81 min, respectively. For the same compound, the 50% cytotoxic concentration (CC50) in “in vitro [3]” was over 50 µM.
On to `CCOC(=O)C(C)(C)OC(=O)OC[C@H]1O[C@@](C#N)(c2ccc3c(N)ncnn23)[C@@H]2OC(=O)CCCC(=O)O[C@@H]21` [Compound C26, ethyl 2-(((((7aR,8R,10R,10aR)-10-(4-aminopyrrolo[2,1-f][1,2,4]triazin-7-yl)-10-cyano-2,6-dioxooctahydro-2H-furo[3,4-b][1,4]dioxonin-8-yl)methoxy)carbonyl)oxy)-2-methylpropanoate], for which the half-maximal effective concentration (EC50) was over 50000 nM with RSV-Luc5 and 39900 nM in the series with SARS-CoV2-NLuc. Besides, the half-life at 2 μM in “in vitro [1]” came out at 18.3 min; in “in vitro [4]”, 0.618 min. The 50% cytotoxic concentration (CC50) in the series “in vitro [3]” was over 50 µM.
